Test results: the supplement of paper PMC12613149

Key:
[1] = collision cross section (TIMS, N2 drift gas) of the primary ion; higher = larger gas-phase ion size
Method: (§1)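 Reference mixture of environmental contaminants analysed by RP-LC (BEH C18, 50 °C; ESI+ with water/MeOH plus formic acid and ammonium formate, ESI- with ammonium bicarbonate) coupled to a timsTOF Pro 2 with trapped ion mobility in nitrogen (ramp/accumulation 100 ms). CCS was calibrated with Agilent tune mix (CCS compendium) and averaged over five injections at 0.5-500 ng/mL. The table reports the lowest-CCS (putative monomer) peak; retention times are on the same gradient.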

[2] = reversed-phase LC retention time (C18, 15 min MeOH gradient); higher = more hydrophobic / later elution
Method: as §1

[3] = ionization mode: ESI-, ion species: [M-H]-
[4] = ionization mode: ESI+, ion species: [M+H]+
[5] = ionization mode: ESI+, ion species: [M]+

| Structure (SMILES) | collision cross section [1, 3] [Å²] | reversed-phase LC retention time [2, 3] [min] | collision cross section [1, 4] [Å²] | reversed-phase LC retention time [2, 4] [min] | collision cross section [1, 5] [Å²] | reversed-phase LC retention time [2, 5] [min] |
| --- | --- | --- | --- | --- | --- | --- |
| Oc1ccc(C(=C(Cl)Cl)c2ccc(O)cc2)cc1 [Bisphenol C] | 164.81 | 14.5 |  |  |  |  |
| NC(=O)N1c2ccccc2CC(O)c2ccccc21 (configuration not stated) [10,11-Dihydro-10-hydroxycarbamazepine] |  |  | 154.89 | 10.7 |  |  |
| O=S(=O)(O)CCNC1CCCCC1 [2-(Cyclohexylamino)-ethansulfonic acid] | 148.72 | 6.1 | 148.57 | 5.19 |  |  |
| COc1cc(C2c3cc4c(cc3C(OC3OC5COC(C)OC5C(O)C3O)C3COC(=O)C23)OCO4)cc(OC)c1O (configuration not stated) [Etoposide] |  |  | 250.37 | 11.6 |  |  |
| O=C(O)CCCCCCCCC(=O)O [Sebacic acid] | 142.73 | 3.2 | 176.16 | 17 |  |  |
| CCCCOC(=O)c1ccccc1C(=O)OCc1ccccc1 [Benzylbutylphthalate] |  |  | 178.47 | 16.3 |  |  |
| CC(=O)OCC(=O)[C@@]1(O)CC[C@H]2[C@@H]3CCC4=CC(=O)CC[C@]4(C)[C@@]3(F)[C@@H](O)C[C@@]21C [Fludrocortisone-21-acetate] | 197.85 | 13.6 |  |  |  |  |
| COC(=O)c1cc(C(=O)OC)cc(S(=O)(=O)O)c1 [Dimethyl-5-sulfoisophthalate] | 162.37 | 8.33 |  |  |  |  |
| COCC(C)N(C(=O)CCl)c1c(C)csc1C (configuration not stated) [Dimethenamid] |  |  | 155.6 | 14 |  |  |
| CC(c1ccc(O)cc1)c1ccc(O)cc1 [Bisphenol E] | 156.4 | 12.7 |  |  |  |  |
| CC[C@H]1OC(=O)[C@H](C)[C@@H](O[C@H]2C[C@@](C)(OC)[C@@H](O)[C@H](C)O2)[C@H](C)[C@@H](O[C@@H]2O[C@H](C)C[C@H](N(C)C)[C@H]2O)[C@](C)(O)C[C@@H](C)C(=NOCOCCOC)[C@H](C)[C@@H](O)[C@]1(C)O [Roxithromycin] |  |  | 277.32 | 14.1 |  |  |
| CCCCCCCCCCCCCCCC(=O)NCCO [Palmitoylethanolamide] |  |  | 193.35 | 18.3 |  |  |
| COc1cc(OC)nc(NC(=O)NS(=O)(=O)c2ncccc2C(=O)N(C)C)n1 [Nicosulfuron] | 194.5 | 8.07 | 193.46 | 11.4 |  |  |
| CC(C)(C)c1cc(-n2nc3ccc(Cl)cc3n2)c(O)c(C(C)(C)C)c1 [UV-327] | 199.94 | 22 |  |  |  |  |
| O=S(=O)(O)C(F)(F)F [Trifluoromethanesulfonic acid] | 108.15 | 1.37 |  |  |  |  |
| c1ccc2sc(NC3CCCCC3)nc2c1 [N-Cyclohexyl-2-benzothiazole-amine] | 157 | 15.9 | 155.21 | 14.1 |  |  |
| O=C(O)c1ccc(-c2ccccc2-c2nnn[nH]2)cc1 [Valsartan acid] | 162.3 | 6.27 | 161.62 | 11.2 |  |  |
| CC(C)Oc1cccc(NC(=O)c2ccccc2C(F)(F)F)c1 [Flutolanil] | 176.16 | 14.7 | 173.43 | 14.3 |  |  |
| N#Cc1nn(-c2c(Cl)cc(C(F)(F)F)cc2Cl)c(N)c1C(F)(F)F [Fipronil desulfinyl] | 168.16 | 15.4 |  |  |  |  |
| O=C(O)C(F)(F)C(F)(F)C(F)(F)C(F)(F)C(F)(F)C(F)(F)C(F)(F)C(F)(F)C(F)(F)F [Perfluorodecanoic acid] | 173.66 | 16 |  |  |  |  |
| O=P(c1ccccc1)(c1ccccc1)c1ccccc1 [Triphenylphosphine oxide] |  |  | 163 | 13.9 |  |  |
| N#Cc1c[nH]cc1-c1cccc2c1OC(F)(F)O2 [Fludioxonil] | 145.03 | 14.4 |  |  |  |  |

| Structure (SMILES) | collision cross section [1, 3] [Å²] | reversed-phase LC retention time [2, 3] [min] | collision cross section [1, 4] [Å²] | reversed-phase LC retention time [2, 4] [min] | collision cross section [1, 5] [Å²] | reversed-phase LC retention time [2, 5] [min] |
| --- | --- | --- | --- | --- | --- | --- |
| Cn1cc(C(=O)Nc2ccccc2-c2cc(F)c(F)c(F)c2)c(C(F)F)n1 [Fluxapyroxad] | 180.37 | 14.7 | 178.14 | 14.4 |  |  |
| Cc1ccc2[nH]nnc2c1 [5-Methyl-1H-benzotriazole] |  |  | 123.85 | 9.87 |  |  |
| Oc1nc(Cl)c(Cl)cc1Cl [3,5,6-Trichloro-2-pyridinol] | 125.88 | 11.2 |  |  |  |  |
| CCCCCCCCCCCCCCN(C)C [N,N-Dimethyltetradecylamine] |  |  | 179.2 | 16.6 |  |  |
| CCCCCCCCCCCCCC[N+](C)(C)Cc1ccccc1 [Benzyldimethyltetradecylammonium] |  |  |  |  | 204.79 | 17 |
| CCCCC(CC)COC(=O)c1ccccc1C(=O)OCC(CC)CCCC (configuration not stated) [Bis(2-ethylhexyl)phthalate] |  |  | 212.9 | 19.1 |  |  |
| CSc1nc(NC2CC2)nc(NC(C)(C)C)n1 [Irgarol] |  |  | 163.17 | 14.4 |  |  |
| Cc1ccccc1N=C(N)Nc1ccccc1C [1,3-Di-o-tolylguanidine] | 158.32 | 11 | 157.64 | 9.72 |  |  |
| CCC(C)c1cc([N+](=O)[O-])cc([N+](=O)[O-])c1O (configuration not stated) [Dinoseb] | 149.61 | 12.3 |  |  |  |  |
| CCN(CC)c1nc(C)cc(OP(=S)(OC)OC)n1 [Pirimiphos-methyl] |  |  | 167.52 | 15.7 |  |  |
| CCCCCCCCCCCCS(=O)(=O)O [1-Dodecanesulfonic acid] | 165.42 | 16.1 |  |  |  |  |
| Oc1ccccc1-c1ccccc1 [2-Phenylphenol] | 134.42 | 13.9 |  |  |  |  |
| CCC(=NOC/C=C/Cl)C1=C(O)CC(C2CCOCC2)CC1=O (configuration not stated) [Tepraloxydim (two peaks)] | 181.89 | 9.17 | 186.68 | 14.7 |  |  |
| CCC1OC(=O)C(C)C(OC2CC(C)(OC)C(O)C(C)O2)C(C)C(OC2OC(C)CC(N(C)C)C2O)C(C)(O)CC(C)CN(C)C(C)C(O)C1(C)O (configuration not stated) [Azithromycin] |  |  | 264.86 | 10.9 |  |  |
| CC1(C)CC(O)CC(C)(C)N1CCO [4-Hydroxy-1-(2-hydroxyethyl)-2,2,6,6-tetramethylpiperidine] |  |  | 143.1 | 2.23 |  |  |
| Cc1cccc(C)c1N(Cn1cccn1)C(=O)CS(=O)(=O)O [Metazachlor ESA] | 168.78 | 9.35 | 168.61 | 9.52 |  |  |
| Cc1cc(Cc2cc(C)cc(C(C)(C)C)c2O)c(O)c(C(C)(C)C)c1 [2,2'-Methylenebis(6-tert-butyl-p-cresol)] | 196.67 | 18.8 |  |  |  |  |
| CC(=NC#N)N(C)Cc1ccc(Cl)nc1 [Acetamiprid] | 148.19 | 9.38 | 153.22 | 9.29 |  |  |
| CCNc1nc(NC(C)(C)C)nc(SC)n1 [Terbutryn] |  |  | 160.25 | 14 |  |  |
| CCCCCCCCCCCOC(=O)c1ccccc1C(=O)OCCCCCCCCCCC [Diundecylphthalate] |  |  | 241.8 | 20.8 |  |  |
| O=C(c1ccc(O)cc1O)c1ccc(O)cc1O [2,2',4,4'-Tetrahydroxybenzophenone] | 151.01 | 8.54 |  |  |  |  |
| COc1ccc2c(c1)[nH]c1c(C)nccc12 [Harmine] | 145.84 | 13.5 | 145.04 | 9.71 |  |  |
